{
  "source": "PubChem BioAssay AID228",
  "about": "(DTP/NCI, 2004)",
  "test_system": "BDF1 mice, Friend leukemia sc, tumor weight T/C",
  "test": "NCI In Vivo Anticancer Drug Screen. Data for tumor model Friend Virus Leukemia (Solid) (subcutaneous) in B6D2F1 (BDF1) mice",
  "conditions": "endpoint: mean tumor weight, higher = larger tumour",
  "description": "The antitumor activity of compounds was measured in mice bearing transplantable tumors. Survival or tumor size were measured and the results are expressed as the measurement made in the treated group (T) divided by the measurement made in the vehicle treated control group (C). The tumor model used in this assay is Friend Virus Leukemia (Solid) (subcutaneous) in B6D2F1 (BDF1) mice",
  "key": {"[1]": {"conditions": "dose: 1.0 mg/kg/injection, schedule: Q01DX011 (ip), vehicle: carboxymethylcellulose (CMC)"}, "[2]": {"conditions": "dose: 2.0 mg/kg/injection, schedule: Q01DX011 (ip), vehicle: carboxymethylcellulose (CMC)"}, "[3]": {"conditions": "dose: 4.0 mg/kg/injection, schedule: Q01DX011 (ip), vehicle: carboxymethylcellulose (CMC)"}},
  "note": "Where “and” joins values, the source holds several entries; their conditions need not be identical. Equal values may be shown once. Records with an inconclusive call do not appear.",
  "data": [
    {"smiles": "Fc1ccc(CSc2ncnc3c2ncn3C2CCCCO2)cc1", "note": "(stereo not given)", "values": [
      {"measurement": "T/C", "setting": "dose: 90.0 mg/kg/injection, schedule: Q01DX011 (ip), vehicle: carboxymethylcellulose (CMC)", "result": "10 % of control"},
      {"measurement": "T/C", "setting": "dose: 180.0 mg/kg/injection, schedule: Q01DX011 (ip), vehicle: carboxymethylcellulose (CMC)", "result": "1 % of control"}
    ]},
    {"smiles": "NC(=O)NO", "values": [
      {"measurement": "T/C", "setting": "dose: 16.0 mg/kg/injection, schedule: Q01DX011 (ip), vehicle: carboxymethylcellulose (CMC)", "result": "91 % of control"},
      {"measurement": "T/C", "setting": "dose: 32.0 mg/kg/injection, schedule: Q01DX011 (ip), vehicle: carboxymethylcellulose (CMC)", "result": "50 % of control"},
      {"measurement": "T/C", "setting": "dose: 32.0 mg/kg/injection, schedule: Q01DX011 (ip), vehicle: saline", "result": "108 % of control"},
      {"measurement": "T/C", "setting": "dose: 64.0 mg/kg/injection, schedule: Q01DX011 (ip), vehicle: carboxymethylcellulose (CMC)", "result": "8 % of control"},
      {"measurement": "T/C", "setting": "dose: 64.0 mg/kg/injection, schedule: Q01DX011 (ip), vehicle: saline", "result": "7 % of control"},
      {"measurement": "T/C", "setting": "dose: 96.0 mg/kg/injection, schedule: Q01DX011 (ip), vehicle: saline", "result": "3 % of control"},
      {"measurement": "T/C", "setting": "dose: 128.0 mg/kg/injection, schedule: Q01DX011 (ip), vehicle: carboxymethylcellulose (CMC)", "result": "4 % of control"},
      {"measurement": "T/C", "setting": "dose: 128.0 mg/kg/injection, schedule: Q01DX011 (ip), vehicle: saline", "result": "4 % of control"}
    ]},
    {"smiles": "C[C@]12CC[C@@H]3c4ccc(O)cc4CC[C@H]3[C@@H]1CC[C@@H]2O", "values": [
      {"measurement": "T/C", "setting": "dose: 1.0 mg/kg/injection, schedule: Q01DX011 (sc), vehicle: steriod suspending solution", "result": "74 % of control"},
      {"measurement": "T/C", "setting": "dose: 5.0 mg/kg/injection, schedule: Q01DX011 (sc), vehicle: steriod suspending solution", "result": "104 % of control"},
      {"measurement": "T/C", "setting": "dose: 10.0 mg/kg/injection, schedule: Q01DX011 (sc), vehicle: steriod suspending solution", "result": "71 % of control"},
      {"measurement": "T/C", "setting": "dose: 20.0 mg/kg/injection, schedule: Q01DX011 (sc), vehicle: steriod suspending solution", "result": "73 % of control"},
      {"measurement": "T/C", "setting": "dose: 40.0 mg/kg/injection, schedule: Q01DX011 (sc), vehicle: steriod suspending solution", "result": "61 % of control"},
      {"measurement": "T/C", "setting": "dose: 80.0 mg/kg/injection, schedule: Q01DX011 (sc), vehicle: steriod suspending solution", "result": "75 % of control"},
      {"measurement": "T/C", "setting": "dose: 100.0 mg/kg/injection, schedule: Q01DX011 (sc), vehicle: steriod suspending solution", "result": "103 % of control"},
      {"measurement": "T/C", "setting": "dose: 150.0 mg/kg/injection, schedule: Q01DX011 (sc), vehicle: steriod suspending solution", "result": "106 % of control"},
      {"measurement": "T/C", "setting": "dose: 200.0 mg/kg/injection, schedule: Q01DX011 (sc), vehicle: steriod suspending solution", "result": "101 % of control"},
      {"measurement": "T/C", "setting": "dose: 400.0 mg/kg/injection, schedule: Q01DX011 (sc), vehicle: steriod suspending solution", "result": "110 % of control"},
      {"measurement": "T/C", "setting": "dose: 500.0 mg/kg/injection, schedule: Q01DX011 (sc), vehicle: steriod suspending solution", "result": "86 % of control and 107 % of control"}
    ]},
    {"smiles": "NC(=O)n1cccn1", "values": [
      {"measurement": "T/C", "setting": "dose: 25.0 mg/kg/injection, schedule: Q01DX011 (ip), vehicle: other", "result": "107 % of control"},
      {"measurement": "T/C", "setting": "dose: 50.0 mg/kg/injection, schedule: Q01DX011 (ip), vehicle: other", "result": "120 % of control"},
      {"measurement": "T/C", "setting": "dose: 100.0 mg/kg/injection, schedule: Q01DX011 (ip), vehicle: other", "result": "78 % of control"},
      {"measurement": "T/C", "setting": "dose: 150.0 mg/kg/injection, schedule: Q01DX011 (ip), vehicle: other", "result": "13 % of control"},
      {"measurement": "T/C", "setting": "dose: 200.0 mg/kg/injection, schedule: Q01DX011 (ip), vehicle: other", "result": "28 % of control"}
    ]},
    {"smiles": "O=P(N1CC1)(N1CC1)N1CC1", "values": [
      {"measurement": "T/C", "setting": "dose: 0.5 mg/kg/injection, schedule: Q01DX011 (ip), vehicle: carboxymethylcellulose (CMC)", "result": "86 % of control"},
      {"measurement": "T/C", "setting": "[1]", "result": "83 % of control"},
      {"measurement": "T/C", "setting": "[2]", "result": "84 % of control and 88 % of control"},
      {"measurement": "T/C", "setting": "[3]", "result": "25 % of control and 37 % of control"}
    ]},
    {"smiles": "CC[C@]1(O)C[C@H]2CN(CCc3c([nH]c4ccccc34)[C@@](C(=O)OC)(c3cc4c(cc3OC)N(C)[C@H]3[C@@](O)(C(=O)OC)[C@H](OC(C)=O)[C@]5(CC)C=CCN6CC[C@]43[C@@H]65)C2)C1", "values": [
      {"measurement": "T/C", "setting": "dose: 0.12 mg/kg/injection, schedule: Q01DX011 (ip), vehicle: carboxymethylcellulose (CMC)", "result": "103 % of control"},
      {"measurement": "T/C", "setting": "dose: 0.24 mg/kg/injection, schedule: Q01DX011 (ip), vehicle: carboxymethylcellulose (CMC)", "result": "53 % of control"}
    ]},
    {"smiles": "NC(=O)N(CCCl)N=O", "values": [
      {"measurement": "T/C", "setting": "[1]", "result": "104 % of control"},
      {"measurement": "T/C", "setting": "[2]", "result": "101 % of control"},
      {"measurement": "T/C", "setting": "[3]", "result": "78 % of control"}
    ]}
  ]
}
